In US9750753B1, “Method of treating diseases associated with LRRK2 mutation using hexachlorophene” (University of South Florida, priority 2014, dated 2017):
“Also recorded” adds a separate entry of the source.

What was measured:
rats [1] = conditions: cited from earlier work; for protection from toxicity induced by B10: pre-treatment prior to administration of B10, rats
[2] = system: primary neuronal cultures; conditions: cited from earlier work
[3] = molecular target: T1, wild-type human LRRK2 protein (Homo sapiens, UniProt Q5S007); assay: Western blot of overexpressed wild-type LRRK2 in transfected HeLa cells; assay type: cell-based
T1 construct: expressed in transfected cells; host or cells: HeLa
Experimental: (§1) HeLa cells overexpressing wild-type or mutant human LRRK2 protein and N9 cells expressing endogenous LRRK2 protein were treated with hexachlorophene (labeled as B10 in FIGS. 1 and 2) for 24 hours.
(§2) HeLa cells were grown in DMEM with 10% FBS and 1% penicillin and streptomycin. Cells were transfected with constructs for LRRK2 and the G2019S mutant using Lipofectamine 2000. HeLa cells were used due to the ease of transfection with LRRK2 and its mutants.
(§3) Samples were harvested by using MPER mammalian extraction buffer (Pierce, Thermo Scientific) containing protease and phosphatase inhibitors. After protein estimation using a BCA kit (Pierce, Thermo Scientific), equal amounts of protein from each sample was subjected to gel electrophoresis and western blotting. Phospho (p-) and Total (T-) LRRK2 (abcam) and GAPDH (Meridian Life Sciences) antibodies were used to detect phospho and total LRRK2 and GAPDH, respectively. Analysis of changes in the LRRK2 level was performed using Scion Image software.

rats [4] = conditions: oral; cited from earlier work
endogenous LRRK2 protein = molecular target: T2, endogenous LRRK2 protein (Mus musculus, UniProt Q5S006); assay: Western blot of endogenous LRRK2 in N9 cells; assay type: cell-based; conditions: 1 μM, 24 hours
T2 construct: N9 cells were used because they express high levels of endogenous LRRK2; endogenous in cells; host or cells: N9
Experimental: as §1
N9 cells were grown in DMEM supplemented with 10% FBS, 1% penicillin and streptomycin, and 2% L-glutamine. N9 cells were used because they express high levels of endogenous LRRK2. They are very difficult to transfect and were only used to study the effect of hexachlorophene on wild-type LRRK2.
as §3

amyloid beta (Aβ) = amyloid beta (Aβ) (Homo sapiens, UniProt P05067); conditions: cited from earlier work
[5] = dose of about 10 mg/kg, transgenic TDP43 mouse model; cited from earlier work
[6] = system: Wnt-β-catenin signaling pathway; conditions: B lymphoma cells; cited from earlier work
mutant (G2019S) LRRK2 = molecular target: T3, mutant (G2019S) LRRK2 (Homo sapiens, UniProt Q5S007, G2019S); assay: Western blot of overexpressed mutant (G2019S) LRRK2 in transfected HeLa cells; assay type: cell-based; conditions: 1 μM, 24 hours, vs vehicle DMSO control
T3 construct: expressed in transfected cells; host or cells: HeLa
Experimental: as §1, §2, §3

synuclein = assay: Synuclein level in HeLa cells (selectivity control); assay type: cell-based; conditions: 1 μM
LRRK2 = conditions: cited from earlier work

T3 sequence (Q5S007 whole entry G2019S): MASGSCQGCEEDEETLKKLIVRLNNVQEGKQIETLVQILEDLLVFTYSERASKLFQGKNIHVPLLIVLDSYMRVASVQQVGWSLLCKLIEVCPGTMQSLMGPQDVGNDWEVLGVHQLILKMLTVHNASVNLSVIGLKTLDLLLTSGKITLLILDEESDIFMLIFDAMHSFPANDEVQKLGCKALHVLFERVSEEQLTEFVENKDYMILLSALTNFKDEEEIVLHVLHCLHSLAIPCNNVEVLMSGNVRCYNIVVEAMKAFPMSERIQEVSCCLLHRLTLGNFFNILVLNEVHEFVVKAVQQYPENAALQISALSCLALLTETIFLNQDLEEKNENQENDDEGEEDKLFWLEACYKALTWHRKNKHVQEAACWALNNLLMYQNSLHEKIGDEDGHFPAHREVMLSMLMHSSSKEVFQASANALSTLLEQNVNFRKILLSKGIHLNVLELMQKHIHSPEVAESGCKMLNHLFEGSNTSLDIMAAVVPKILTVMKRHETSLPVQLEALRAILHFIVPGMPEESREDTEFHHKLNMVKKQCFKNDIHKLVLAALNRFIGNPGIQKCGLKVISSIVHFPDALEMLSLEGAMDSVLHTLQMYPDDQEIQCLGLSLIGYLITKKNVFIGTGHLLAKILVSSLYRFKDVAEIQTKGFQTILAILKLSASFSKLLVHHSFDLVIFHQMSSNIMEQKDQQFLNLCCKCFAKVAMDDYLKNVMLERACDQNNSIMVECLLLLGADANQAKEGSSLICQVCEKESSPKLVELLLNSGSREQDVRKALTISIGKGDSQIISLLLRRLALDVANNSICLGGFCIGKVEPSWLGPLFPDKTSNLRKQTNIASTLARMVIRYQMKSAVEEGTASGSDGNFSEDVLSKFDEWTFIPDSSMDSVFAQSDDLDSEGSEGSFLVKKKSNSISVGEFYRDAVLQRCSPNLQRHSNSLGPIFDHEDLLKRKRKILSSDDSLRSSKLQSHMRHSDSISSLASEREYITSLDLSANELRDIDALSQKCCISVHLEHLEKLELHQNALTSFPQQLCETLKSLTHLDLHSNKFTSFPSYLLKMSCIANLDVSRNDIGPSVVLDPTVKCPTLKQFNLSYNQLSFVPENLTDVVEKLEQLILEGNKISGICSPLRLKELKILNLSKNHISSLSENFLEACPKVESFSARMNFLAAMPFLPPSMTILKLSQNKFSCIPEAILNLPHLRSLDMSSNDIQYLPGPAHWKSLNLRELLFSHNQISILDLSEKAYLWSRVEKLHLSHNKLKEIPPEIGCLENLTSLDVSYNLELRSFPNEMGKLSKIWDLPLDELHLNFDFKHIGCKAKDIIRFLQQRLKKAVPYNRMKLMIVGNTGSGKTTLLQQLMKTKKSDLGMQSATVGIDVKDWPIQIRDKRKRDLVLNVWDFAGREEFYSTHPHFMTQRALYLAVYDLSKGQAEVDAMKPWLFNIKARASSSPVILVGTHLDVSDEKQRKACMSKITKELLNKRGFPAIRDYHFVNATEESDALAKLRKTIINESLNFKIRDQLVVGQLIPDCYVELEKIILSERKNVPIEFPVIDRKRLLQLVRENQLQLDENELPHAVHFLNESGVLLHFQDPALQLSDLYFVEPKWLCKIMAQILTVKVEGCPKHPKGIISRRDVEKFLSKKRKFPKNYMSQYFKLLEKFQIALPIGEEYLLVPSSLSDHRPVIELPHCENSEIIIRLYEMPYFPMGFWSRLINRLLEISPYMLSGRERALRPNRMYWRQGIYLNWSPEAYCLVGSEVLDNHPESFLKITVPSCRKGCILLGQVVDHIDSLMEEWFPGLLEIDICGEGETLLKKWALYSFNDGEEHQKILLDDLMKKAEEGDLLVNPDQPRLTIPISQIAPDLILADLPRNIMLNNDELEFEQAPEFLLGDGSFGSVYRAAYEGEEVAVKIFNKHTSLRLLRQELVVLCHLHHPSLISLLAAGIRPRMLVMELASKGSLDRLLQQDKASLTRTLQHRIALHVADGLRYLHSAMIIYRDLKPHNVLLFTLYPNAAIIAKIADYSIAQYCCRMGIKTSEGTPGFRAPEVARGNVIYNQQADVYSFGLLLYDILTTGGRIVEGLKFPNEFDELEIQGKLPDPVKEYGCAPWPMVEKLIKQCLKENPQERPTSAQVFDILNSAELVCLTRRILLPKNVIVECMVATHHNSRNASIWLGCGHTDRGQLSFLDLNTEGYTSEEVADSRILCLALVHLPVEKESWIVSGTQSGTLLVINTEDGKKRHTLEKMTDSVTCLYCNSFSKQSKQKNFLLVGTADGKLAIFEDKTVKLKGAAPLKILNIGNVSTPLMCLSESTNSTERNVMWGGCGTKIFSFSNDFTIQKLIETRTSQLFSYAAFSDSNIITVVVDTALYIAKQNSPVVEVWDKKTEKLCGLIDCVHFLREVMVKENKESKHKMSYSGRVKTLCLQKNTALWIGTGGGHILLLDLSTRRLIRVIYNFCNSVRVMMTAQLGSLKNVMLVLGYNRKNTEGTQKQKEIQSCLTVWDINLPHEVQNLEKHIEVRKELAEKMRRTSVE
T2 sequence (Q5S006 whole entry): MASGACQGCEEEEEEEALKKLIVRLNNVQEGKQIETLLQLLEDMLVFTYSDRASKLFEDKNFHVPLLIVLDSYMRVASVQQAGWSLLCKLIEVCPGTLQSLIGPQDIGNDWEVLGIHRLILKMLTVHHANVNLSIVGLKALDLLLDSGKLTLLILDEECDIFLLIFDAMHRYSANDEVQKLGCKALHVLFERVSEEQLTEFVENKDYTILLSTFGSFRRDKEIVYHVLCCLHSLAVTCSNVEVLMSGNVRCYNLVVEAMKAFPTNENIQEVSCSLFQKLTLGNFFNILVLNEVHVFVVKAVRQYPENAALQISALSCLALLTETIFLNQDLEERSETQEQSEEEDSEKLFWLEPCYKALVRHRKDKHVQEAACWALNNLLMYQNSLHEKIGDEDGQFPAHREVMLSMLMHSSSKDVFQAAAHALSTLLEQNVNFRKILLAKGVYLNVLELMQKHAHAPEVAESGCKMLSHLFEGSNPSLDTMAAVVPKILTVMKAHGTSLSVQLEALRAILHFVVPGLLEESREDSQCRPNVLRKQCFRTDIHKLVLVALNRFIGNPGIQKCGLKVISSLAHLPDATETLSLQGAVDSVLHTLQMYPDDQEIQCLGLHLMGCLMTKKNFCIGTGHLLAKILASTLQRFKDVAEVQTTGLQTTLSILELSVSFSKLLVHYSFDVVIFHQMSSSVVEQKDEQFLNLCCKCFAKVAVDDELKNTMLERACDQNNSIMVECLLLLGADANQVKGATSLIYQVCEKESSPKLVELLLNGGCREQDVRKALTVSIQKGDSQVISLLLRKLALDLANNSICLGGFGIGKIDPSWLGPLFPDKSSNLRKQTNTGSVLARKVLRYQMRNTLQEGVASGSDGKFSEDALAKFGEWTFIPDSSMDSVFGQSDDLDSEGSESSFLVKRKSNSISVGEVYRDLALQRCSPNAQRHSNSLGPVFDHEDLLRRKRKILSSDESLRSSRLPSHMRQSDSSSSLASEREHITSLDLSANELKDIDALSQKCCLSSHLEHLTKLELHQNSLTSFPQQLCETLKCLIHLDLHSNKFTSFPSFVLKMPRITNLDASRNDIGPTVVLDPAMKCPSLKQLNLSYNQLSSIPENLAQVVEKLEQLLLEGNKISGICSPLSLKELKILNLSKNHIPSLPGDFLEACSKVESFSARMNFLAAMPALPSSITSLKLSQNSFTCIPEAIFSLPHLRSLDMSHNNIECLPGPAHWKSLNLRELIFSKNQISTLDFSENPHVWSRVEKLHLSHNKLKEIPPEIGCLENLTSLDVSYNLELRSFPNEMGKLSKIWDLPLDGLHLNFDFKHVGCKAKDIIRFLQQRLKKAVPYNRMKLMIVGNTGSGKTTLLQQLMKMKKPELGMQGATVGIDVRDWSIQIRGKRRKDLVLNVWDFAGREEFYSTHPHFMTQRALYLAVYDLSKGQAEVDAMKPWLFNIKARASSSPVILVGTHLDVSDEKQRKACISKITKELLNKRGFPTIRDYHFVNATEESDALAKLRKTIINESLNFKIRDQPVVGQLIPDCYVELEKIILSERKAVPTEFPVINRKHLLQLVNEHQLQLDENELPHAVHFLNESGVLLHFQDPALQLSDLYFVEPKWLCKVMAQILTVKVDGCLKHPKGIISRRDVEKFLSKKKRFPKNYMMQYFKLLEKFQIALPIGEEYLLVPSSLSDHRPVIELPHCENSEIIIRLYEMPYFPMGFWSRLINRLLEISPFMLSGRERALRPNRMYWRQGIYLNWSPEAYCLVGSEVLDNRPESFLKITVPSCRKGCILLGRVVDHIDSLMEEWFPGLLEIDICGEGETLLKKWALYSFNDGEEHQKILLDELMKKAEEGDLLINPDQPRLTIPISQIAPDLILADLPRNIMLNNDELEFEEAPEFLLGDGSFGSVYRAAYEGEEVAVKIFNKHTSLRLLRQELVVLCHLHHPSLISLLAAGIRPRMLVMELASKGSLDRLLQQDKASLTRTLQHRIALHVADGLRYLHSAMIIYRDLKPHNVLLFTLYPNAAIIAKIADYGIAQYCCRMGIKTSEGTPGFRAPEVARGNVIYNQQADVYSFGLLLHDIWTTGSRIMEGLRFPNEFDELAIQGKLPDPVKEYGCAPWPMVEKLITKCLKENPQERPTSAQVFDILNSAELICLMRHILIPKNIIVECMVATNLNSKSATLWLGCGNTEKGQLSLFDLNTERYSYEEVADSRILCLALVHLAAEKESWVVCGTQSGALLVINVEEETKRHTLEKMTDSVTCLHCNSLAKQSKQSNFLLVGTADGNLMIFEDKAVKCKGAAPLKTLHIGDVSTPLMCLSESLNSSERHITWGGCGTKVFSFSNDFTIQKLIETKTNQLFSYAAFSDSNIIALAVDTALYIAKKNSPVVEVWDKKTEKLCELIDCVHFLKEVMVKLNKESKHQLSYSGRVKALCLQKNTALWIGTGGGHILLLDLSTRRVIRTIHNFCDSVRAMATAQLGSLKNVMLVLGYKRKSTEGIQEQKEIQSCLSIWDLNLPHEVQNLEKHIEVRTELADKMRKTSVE
T1 sequence (Q5S007 whole entry): as the sequence (Q5S007 whole entry G2019S) above, with S2019G counted along it
amyloid beta (Aβ), sequence (P05067 672-713 limits assumed): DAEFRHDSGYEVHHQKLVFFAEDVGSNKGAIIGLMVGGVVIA

Structure (SMILES): C[N+](C)(C)C[C@H](O)CC(=O)[O-] [L-carnitine]
- protection from toxicity induced by B10 (rats [1]): protected

Structure (SMILES): CCCC(C(=O)OCCN(CC)CC)(c1ccccc1)c1ccccc1.Cl [SKF-525A, 2-diethylaminoethyl-2,2-diphenylvalerate-Hcl]
- protective effect by route of administration (rats [1]; oral vs ip administration of the pre-treatment agent): only occurred upon oral administration
- protection from toxicity induced by B10 (rats [1]): lessened toxicity

Structure (SMILES): CCOc1ccc2c(c1)C(C)=CC(C)(C)N2 [ethoxyquin]
- protection from toxicity induced by B10 (rats [1]): protects

Structure (SMILES): Oc1c(Cl)cc(Cl)c(Cl)c1Cc1c(O)c(Cl)cc(Cl)c1Cl [hexachlorophene, Hexachlorophene]
- protection from Aβ-induced toxicity [2]: protect
- overexpressed wild-type LRRK2 level ([3]; HeLa cells, 1 μM, 24 hours, vs vehicle DMSO control): selectively reduces; also recorded: decreased
- period of maximal effect on LRRK2 levels ([3]; cell line not stated (HeLa and N9 cells used)): 24 h
- cell death (LDH release) (N9 cells): minimal amounts of cell death
- LD50 (rats [4]): 66 mg/kg
- endogenous pLRRK2 level (endogenous LRRK2 protein): reduces
- expression of endogenous LRRK2 (endogenous LRRK2 protein): reduces
- effect on Aβ fibril formation (amyloid beta (Aβ)): inhibit
- cell death (LDH release) (HeLa cells): minimal amounts of cell death
- brain permeability [5]: 50%
- effect on Wnt-β-catenin signaling pathway [6]: inhibit
- overexpressed mutant (G2019S) LRRK2 level (mutant (G2019S) LRRK2): selectively reduces; also recorded: decreased
- effect on synuclein (synuclein): does not affect

Structure (SMILES): CC1=C(CO)C(=O)O[C@@H]([C@@H](C)[C@H]2CC[C@H]3[C@@H]4C[C@H]5O[C@]56[C@@H](O)C=CC(=O)[C@]6(C)[C@H]4CC[C@]23C)C1 [withaferin A]
- clearance of LRRK2 (LRRK2; WA in the presence of celastrol, additive manner): enhanced
- LRRK2 levels in cells (LRRK2; compound alone, dose and time dependent manner): reduced
